The source of these data is patent US20130137757A1 (priority 2010, published 2013).

The subject of assay [1] is influenza viruses A/PR/8/34 (H1N1 type) strain. Description: hemagglutination inhibition test. The assay is classed as cell-based, influenza virus. The following applies: guinea pig red blood cell suspensions, A/PR/8/34 (H1N1) strain, in PBS.
For assay [2], the system named is influenza viruses A/Memphis/1/71 (H3N2 type) strain. Description: hemagglutination inhibition test. Format: cell-based, influenza virus. The note with it: guinea pig red blood cell suspensions, A/Memphis/1/71 (H3N2) strain, in PBS.

Regarding deoxyribonucleic acid [DNA], the “hemagglutination (visual and microscopic observation)” value in assay [1] and in assay [2] was “strong hemagglutination was observed” in each case.
